Measured values from patent US20240383915A1, “OXAZEPINE COMPOUNDS AND USES THEREOF IN THE TREATMENT OF CANCER” (Genentech, Inc., priority 2021, published 2024).
pIC50: −log10 of the molar value.

Experiments:
PC-9 cells = test: PC9 proliferation assay; assay type: cell-based, human; settings: Homo sapiens, PC-9, PC9; read-out: PC9 Prolif IC50 (G12V)
KRas = KRas (Homo sapiens (Human), UniProt P01116); test: KRas GDP HTRF (BODIPY-GDP exchange TR-FRET); assay type: biochemical
How it was run: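 Inhibition of SOS1-mediated exchange of BODIPY-GDP on KRAS G12D, started with 3 nM recombinant human SOS1 and 300 nM BODIPY-GDP and read after 60 min. TR-FRET excitation 337 nm, ratio 520/490 nm ×10,000. IC50 from 4-parameter Hill fit of normalized data.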

KRas(G12V) = KRas(G12V) (Homo sapiens (Human), UniProt P01116, G12V); test: KRas(G12V) GDP HTRF (BODIPY-GDP exchange TR-FRET); assay type: biochemical
KRas(G12V), sequence (P01116-2 other isoform, or with tags, fused parts or gaps G12V): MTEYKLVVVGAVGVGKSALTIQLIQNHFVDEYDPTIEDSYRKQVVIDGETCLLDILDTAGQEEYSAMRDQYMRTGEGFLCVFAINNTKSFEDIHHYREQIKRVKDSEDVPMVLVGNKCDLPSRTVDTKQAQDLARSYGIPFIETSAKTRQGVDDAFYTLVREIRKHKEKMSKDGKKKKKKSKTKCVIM

SW480 cells = test: SW480 proliferation assay; assay type: cell-based; settings: Homo sapiens, SW480, SW480; read-out: SW480 Prolif IC50 (G12V)

KRas, sequence (P01116-2 other isoform, or with tags, fused parts or gaps): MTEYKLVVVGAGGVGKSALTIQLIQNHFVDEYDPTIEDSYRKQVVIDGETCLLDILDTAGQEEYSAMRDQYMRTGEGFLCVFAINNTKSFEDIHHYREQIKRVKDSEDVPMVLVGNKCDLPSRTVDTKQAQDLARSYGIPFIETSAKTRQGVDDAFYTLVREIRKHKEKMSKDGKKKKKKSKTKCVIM

Cc1cc(N)nc(-c2c(Cl)c3c4c(nc(OC[C@H]5CC[C@@H]6COCCN65)nc4c2F)N([C@H](C)c2cccnc2N)CCO3)c1C(F)(F)F (atropisomer, axis not shown; (aR)) [Example 87b, 6-((R)-4-((R)-1-(2-aminopyridin-3-yl)ethyl)-8-chloro-10-fluoro-2-(((6R,8aR)-hexahydro-1H-pyrrolo[2,1-c][1,4]oxazin-6-yl)methoxy)-5,6-dihydro-4H-[1,4]oxazepino[5,6,7-de]quinazolin-9-yl)-4-methyl-5-(trifluoromethyl)pyridin-2-amine]
pIC50 (PC-9 cells): 5.51 | pIC50 (KRas): 9.74 | pIC50 (KRas(G12V)): 10.05 | pIC50 (SW480 cells): 7.55

Cc1cc(N)nc(-c2c(Cl)c3c4c(nc(OC[C@@]56CCCN5C[C@H](F)C6)nc4c2F)N([C@@H](c2cccnc2N)C2CC2)CCO3)c1C(F)(F)F (atropisomer, axis not shown; (aS)) [Example 86, 6-((R)-4-((R)-(2-aminopyridin-3-yl)(cyclopropyl)methyl)-8-chloro-10-fluoro-2-(((2R,7aS)-2-fluorotetrahydro-1H-pyrrolizin-7a(5H)-yl)methoxy)-5,6-dihydro-4H-[1,4]oxazepino[5,6,7-de]quinazolin-9-yl)-4-methyl-5-(trifluoromethyl)pyridin-2-amine]
pIC50 (PC-9 cells): 5.43 | pIC50 (KRas): 9.36 | pIC50 (KRas(G12V)): 9.82 | pIC50 (SW480 cells): 8.31

Cc1cc(N)nc(-c2c(Cl)c3c4c(nc(OC[C@@]56CCN5CC(F)(F)C6)nc4c2F)N([C@H](C)c2cncnc2N)CCO3)c1C(F)(F)F (atropisomer, axis not shown) [Example 82a, 5-((R)-1-((R)-9-(6-amino-4-methyl-3-(trifluoromethyl)pyridin-2-yl)-8-chloro-2-(((S)-3,3-difluoro-1-azabicyclo[3.2.0]heptan-5-yl)methoxy)-10-fluoro-5,6-dihydro-4H-[1,4]oxazepino[5,6,7-de]quinazolin-4-yl)ethyl)pyrimidin-4-amine]
pIC50 (PC-9 cells): 5.17 | pIC50 (KRas): 9.79 | pIC50 (KRas(G12V)): 9.96 | pIC50 (SW480 cells): 7.59

C=C1CN2CCC[C@@]2(COc2nc3c4c(c(Cl)c(-c5nc(N)cc(C)c5C(F)(F)F)c(F)c4n2)OCCN3C)C1 [Example 40]
pIC50 (PC-9 cells): 5.68 | pIC50 (KRas): 8.34 | pIC50 (KRas(G12V)): 9.00 | pIC50 (SW480 cells): 5.92

Cc1cc(N)nc(-c2c(Cl)c3c4c(nc(OC[C@@]56CCN5CC(F)(F)C6)nc4c2F)N([C@H](C)c2ccnnc2N)CCO3)c1C(F)(F)F (atropisomer, axis not shown) [Example 77a, 4-((R)-1-((R)-9-(6-amino-4-methyl-3-(trifluoromethyl)pyridin-2-yl)-8-chloro-2-(((S)-3,3-difluoro-1-azabicyclo[3.2.0]heptan-5-yl)methoxy)-10-fluoro-5,6-dihydro-4H-[1,4]oxazepino[5,6,7-de]quinazolin-4-yl)ethyl)pyridazin-3-amine]
pIC50 (PC-9 cells): 4.70 | pIC50 (KRas): 9.48 | pIC50 (KRas(G12V)): 9.92 | pIC50 (SW480 cells): 7.68

Cc1cc(N)nc(-c2cc3ncnc4c3c(c2Cl)OCCN4C(c2cccnc2N)C(F)(F)F)c1C(F)(F)F (stereo not shown) [Example 20, 6-(4-(1-(2-aminopyridin-3-yl)-2,2,2-trifluoroethyl)-8-chloro-5,6-dihydro-4H-[1,4]oxazepino[5,6,7-de]quinazolin-9-yl)-4-methyl-5-(trifluoromethyl)pyridin-2-amine]
pIC50 (PC-9 cells): 5.06 | pIC50 (KRas): 6.29 | pIC50 (KRas(G12V)): 7.16 | pIC50 (SW480 cells): 5.14

Cc1cc(N)nc(-c2c(Cl)c3c4c(nc(OCCn5cccn5)nc4c2F)N([C@H](C)c2cccnc2N)CCO3)c1C(F)(F)F (atropisomer, axis not shown) [Example 136, 6-((R)-2-(2-(1H-pyrazol-1-yl)ethoxy)-4-((R)-1-(2-aminopyridin-3-yl)ethyl)-8-chloro-10-fluoro-5,6-dihydro-4H-[1,4]oxazepino[5,6,7-de]quinazolin-9-yl)-4-methyl-5-(trifluoromethyl)pyridin-2-amine]
pIC50 (PC-9 cells): 5.07 | pIC50 (KRas): 9.08 | pIC50 (KRas(G12V)): 9.68 | pIC50 (SW480 cells): 7.20

Cc1cc(N)nc(-c2c(Cl)c3c4c(nc(OC[C@@]56CCCN5C[C@H](F)C6)nc4c2F)N([C@H](C)c2cncnc2N)CCO3)c1C(F)(F)F (atropisomer, axis not shown; (aS)) [Example 81, 5-((R)-1-((R)-9-(6-amino-4-methyl-3-(trifluoromethyl)pyridin-2-yl)-8-chloro-10-fluoro-2-(((2R,7aS)-2-fluorotetrahydro-1H-pyrrolizin-7a(5H)-yl)methoxy)-5,6-dihydro-4H-[1,4]oxazepino[5,6,7-de]quinazolin-4-yl)ethyl)pyrimidin-4-amine]
pIC50 (PC-9 cells): 5.11 | pIC50 (KRas): 10.18 | pIC50 (KRas(G12V)): 10.17 | pIC50 (SW480 cells): 8.21

Cc1cc(N)nc(-c2cc3ncnc4c3c(c2Cl)OCCN4[C@@H](C)c2cccnc2N)c1C(F)(F)F [Example 18, (S)-6-(4-(1-(2-aminopyridin-3-yl)ethyl)-8-chloro-5,6-dihydro-4H-[1,4]oxazepino[5,6,7-de]quinazolin-9-yl)-4-methyl-5-(trifluoromethyl)pyridin-2-amine]
pIC50 (PC-9 cells): 4.70 | pIC50 (KRas): 6.70 | pIC50 (KRas(G12V)): 7.46 | pIC50 (SW480 cells): 4.70

Cc1cc(N)nc(-c2c(F)c3c4c(nc(OC[C@@]56CCCN5C[C@H](F)C6)nc4c2F)N([C@H](C)c2cccnc2N)CCO3)c1C(F)(F)F (atropisomer, axis not shown; (aS)) [Example 66a, 6-((R)-4-((R)-1-(2-aminopyridin-3-yl)ethyl)-8,10-difluoro-2-(((2R,7aS)-2-fluorotetrahydro-1H-pyrrolizin-7a(5H)-yl)methoxy)-5,6-dihydro-4H-[1,4]oxazepino[5,6,7-de]quinazolin-9-yl)-4-methyl-5-(trifluoromethyl)pyridin-2-amine]
pIC50 (PC-9 cells): 5.55 | pIC50 (KRas): 9.92 | pIC50 (KRas(G12V)): 10.30 | pIC50 (SW480 cells): 8.51

Cc1cc(N)nc(-c2c(Cl)c3c4c(nc(OC[C@@H]5C[C@]6(CN5C)CC6(F)F)nc4c2F)N([C@H](C)c2cccnc2N)CCO3)c1C(F)(F)F (atropisomer, axis not shown) [Example 68, 6-((R)-4-((R)-1-(2-aminopyridin-3-yl)ethyl)-8-chloro-2-(((3R,6S)-1,1-difluoro-5-methyl-5-azaspiro[2.4]heptan-6-yl)methoxy)-10-fluoro-5,6-dihydro-4H-[1,4]oxazepino[5,6,7-de]quinazolin-9-yl)-4-methyl-5-(trifluoromethyl)pyridin-2-amine]
pIC50 (PC-9 cells): 5.74 | pIC50 (KRas): 9.51 | pIC50 (KRas(G12V)): 10.00 | pIC50 (SW480 cells): 7.96

Cc1cc(N)nc(-c2c(Cl)c3c4c(nc(OC[C@@]56CCCN5C[C@]5(CC5(F)F)C6)nc4c2F)N([C@H](C)c2cccnc2N)CCO3)c1C(F)(F)F (atropisomer, axis not shown) [Example 111a, 6-((R)-4-((R)-1-(2-aminopyridin-3-yl)ethyl)-8-chloro-2-(((1R,7a′S)-2,2-difluorodihydro-1′H,3′H-spiro[cyclopropane-1,2′-pyrrolizin]-7a′(5′H)-yl)methoxy)-10-fluoro-5,6-dihydro-4H-[1,4]oxazepino[5,6,7-de]quinazolin-9-yl)-4-methyl-5-(trifluoromethyl)pyridin-2-amine]
pIC50 (PC-9 cells): 5.13 | pIC50 (KRas): 9.07 | pIC50 (KRas(G12V)): 9.44 | pIC50 (SW480 cells): 8.74

Cc1cc(N)nc(-c2cc3nc(OC[C@@]45CCCN4CC4(C5)OCCO4)nc4c3c(c2Cl)OCCN4Cc2cccnc2N)c1C(F)(F)F [Example 35, (S)-6-(4-((2-aminopyridin-3-yl)methyl)-8-chloro-2-((dihydro-1H,3H-spiro[pyrrolizine-2,2′-[1,3]dioxolan]-7a(5H)-yl)methoxy)-5,6-dihydro-4H-[1,4]oxazepino[5,6,7-de]quinazolin-9-yl)-4-methyl-5-(trifluoromethyl)pyridin-2-amine]
pIC50 (PC-9 cells): 5.77 | pIC50 (KRas): 9.20 | pIC50 (KRas(G12V)): 9.41 | pIC50 (SW480 cells): 6.11

Cc1cc(N)nc(-c2c(Cl)c3c4c(nc(OCC5CCCN(C)C5)nc4c2F)N([C@H](C)c2cccnc2N)CCO3)c1C(F)(F)F (stereo partly drawn) [Example 137, 6-((9R)-4-((R)-1-(2-aminopyridin-3-yl)ethyl)-8-chloro-10-fluoro-2-((1-methylpiperidin-3-yl)methoxy)-5,6-dihydro-4H-[1,4]oxazepino[5,6,7-de]quinazolin-9-yl)-4-methyl-5-(trifluoromethyl)pyridin-2-amine]
pIC50 (PC-9 cells): 5.96 | pIC50 (KRas): 9.80 | pIC50 (KRas(G12V)): 10.15 | pIC50 (SW480 cells): 6.85

Cc1cc(N)nc(-c2c(Cl)c3c4c(nc(OC[C@@]56CCCN5C[C@H](F)C6)nc4c2F)N([C@H](C)c2cncc(N)c2)CCO3)c1C(F)(F)F (atropisomer, axis not shown; (aS)) [Example 45, (R)-6-(4-((S)-1-(5-aminopyridin-3-yl)ethyl)-8-chloro-10-fluoro-2-(((2R,7aS)-2-fluorotetrahydro-1H-pyrrolizin-7a(5H)-yl)methoxy)-5,6-dihydro-4H-[1,4]oxazepino[5,6,7-de]quinazolin-9-yl)-4-methyl-5-(trifluoromethyl)pyridin-2-amine]
pIC50 (PC-9 cells): 5.22 | pIC50 (KRas): 9.57 | pIC50 (KRas(G12V)): 9.64 | pIC50 (SW480 cells): 7.30

Cc1cc(N)nc(-c2c(Cl)c3c4c(nc(OCCO)nc4c2F)N([C@H](C)c2cccnc2N)CCO3)c1C(F)(F)F (atropisomer, axis not shown) [Example 156, 2-(((R)-9-(6-amino-4-methyl-3-(trifluoromethyl)pyridin-2-yl)-4-((R)-1-(2-aminopyridin-3-yl)ethyl)-8-chloro-10-fluoro-5,6-dihydro-4H-[1,4]oxazepino[5,6,7-de]quinazolin-2-yl)oxy)ethan-1-ol]
pIC50 (PC-9 cells): 4.80 | pIC50 (KRas): 9.19 | pIC50 (KRas(G12V)): 9.72 | pIC50 (SW480 cells): 6.51
